# Assay results from US4190642A, “Ocular therapeutic system for dispensing a medication formulation” (Alza Corporation, priority 1979, dated 1980).
# Counter-ions that a name gives are not always drawn. Like-named read-outs stand apart in the source and are kept apart here.
# Legend:
# [1] = osmotic pressure (vapor pressure osmometer); format: physicochemical
# Text: System 10 houses in depot 14 from about 1 to 40 weight percent of pilocarpine solute and from 1 to 25 weight percent of epinephrine solute, with the remaining weight percent of system 10 polymer 12. […] Generally, the pilocarpine solute and the epinephrine solute will have a particle size of about 0.1 to 100 microns, and a presently preferred particle size of about 0.5 to 20 microns. […] This application and the copending application are both assigned to the Alza Corporation of Palo Alto, California.
# The osmotic pressure, ATM, of the above solutes can be measured in a commercially available osmometer that measures the vapor pressure difference between pure water and the solution containing a solute to be analyzed, and according to standard thermodynamic principles, the vapor pressure ratio is converted into osmotic pressure difference.
# [2] = solubility in water
# Text: System 10 houses in depot 14 from about 1 to 40 weight percent of pilocarpine solute and from 1 to 25 weight percent of epinephrine solute, with the remaining weight percent of system 10 polymer 12. […] Generally, the pilocarpine solute and the epinephrine solute will have a particle size of about 0.1 to 100 microns, and a presently preferred particle size of about 0.5 to 20 microns. The osmotic delivery device consisting of sole drug solute of a specific particle size dispersed in a polymer is the invention of Michaels and Guillod as disclosed and claimed in copending U.S. Patent Application Ser. No. 855,605, filed on Nov. 29, 1977. This application and the copending application are both assigned to the Alza Corporation of Palo Alto, California.
# Next, the contents of the bowl are removed, cut into 3 mm ×3 mm pieces with a multi-blade strip die and the strips fed to the hopper of an extruder. The pieces have a residence time of 5 minutes in the extruder with the screw of the extruder rotating at 20 rpm. A film is extruded through a 12 mil opening at the end of the extruder and punched into 13.5×5.8 mm inserts.
solubility ([2]; water),"solubility ([2]; water, solubility in water)",SMILES,osmotic pressure [1],osmotic pressure ([1]; Example 5),"solubility ([2]; water, solubility in water, 37° C.)","solubility ([2]; water, solubility, water solution)",osmotic pressure ([1]; hydrochloride),"solubility ([2]; water solution, hydrochloride)"
,,CNC[C@H](O)c1ccc(O)c(O)c1 [epinephrine bitartrate],78.5 atmospheres,78.5 ATM,670 mg/mL,670 mg/mL,,
,,CNC[C@H](O)c1ccc(O)c(O)c1 [epinephrine hydrochloride],,,,,185 atmospheres,80 grams in 100 ml of water solution
80 grams in 100 ml of water solution,,CC[C@@H]1C(=O)OC[C@@H]1Cc1cncn1C [pilocarpine hydrochloride],,,,,300 atmospheres,
27 grams in 100 ml of water solution,270 mg/mL,CC[C@@H]1C(=O)OC[C@@H]1Cc1cncn1C [pilocarpine nitrate],37 atmospheres,37 ATM,,,,
